Molecules are shown by their SMILES.

The values that follow come from US20240373852A1, “COMPOSITION FOR ALLEVIATING DROUGHT STRESS COMPRISING AMINO ACID” (CJ CheilJedang Corporation, priority 2022, published 2024).

The subject of this test is Arabidopsis thaliana. The experiment in a line: Drought stress alleviation plate assay, single amino acid spray on Arabidopsis thaliana seedlings on PEG-treated medium. Format: in vivo. The conditions noted are these: for growth and development of above- and below-ground tissues (fresh weight of above-ground tissues, root length): drought stress-induced medium (PEG 20% treated), amino acid aqueous solution 0.05% (w/w) or 0.1% (w/w) sprayed 1 ml/plate, 3 days intervals, 4 times, compared to water or A company's product (AP); for function in alleviating drought stress and promoting plant growth: laboratory condition (plate assay), conclusion from Example 1-2 and 1-3. An excerpt: In order to select an individual amino acid having function in alleviating drought stress among 20 kinds of amino acids (histidine, sodium glutamate, proline, threonine, tryptophan, valine, alanine, arginine, asparagine, aspartic acid, cysteine, glutamine, glycine, leucine, lysine, methionine, phenylalanine, serine, or tyrosine), Arabidopsis thaliana was trans-planted in drought stress-induced medium, and an amino acid aqueous solution comprising each amino acid (0.05% (w/w) or 0.1% (w/w)) was treated, then the fresh weight of the above-ground tissue and growth and development of the root (main root) of Arabidopsis thaliana were investigated.
Arabidopsis thaliana seeds (provided by Konkuk University plant development genomics lab) were put in a 2% Sodium hypochlorite, 0.05% Tween 20 solution and sterilized for 1 minute, then washed with water 4 times. The sterilized seeds were incubated in dark and cold (4 degrees) for 3 days.
Arabidopsis thaliana seeds were sown in a plant growth medium (½ MS; Murashige and Skoog Medium, Duchefa Biochem), and grow for 6 days in the growth chamber. The growth condition of plants is as follows: • Temperature: 23° C.; humidity: 60˜65%; light: light 16 hours/dark 8 hours
The drought stress-induced medium was prepared by the method as below.
After 24 hours, the PEG solution was removed and dried at a room temperature under a sterile condition.
6 days-old Arabidopsis thaliana seedlings grown in normal plant growth medium were transferred to the drought stress-induced medium (PEG 20% treated) or a control medium (PEG untreated).
Immediately after transfer seedlings on the drought-stress induced medium, an individual amino acid aqueous solution (0.05% (w/w) or 0.1% (w/w)) was sprayed on the plants; 1 ml/plate, 3 days intervals, for 4 times. As a control group, instead of the amino acid aqueous solution, water (DW, distilled water) or A company's drought stress-alleviating product (AP product, comprising Pro 9%, MSG 2.5%, Asp 0.9%) (Ajinomoto Fertilizers, Amino proline) was sprayed by the same method.
After that, the fresh weight, and root growth and development of Arabidopsis thaliana were investigated.

On to `C[C@H](N)C(=O)O` [alanine], for which the “growth and development of above- and below-ground tissues (fresh weight of above-ground tissues, root length)” value (shortened to “growth and development”) was “excellent”; the “function in alleviating drought stress and promoting plant growth” value (from here on “function”) was “positive function”.

As for `N=C(N)NCCC[C@H](N)C(=O)O` [arginine], the “growth and development” value was “excellent”; the “function” value is “positive function”. In the case of `N[C@@H](CC(=O)O)C(=O)O` [aspartic acid], the “growth and development” value is “excellent”; the “function” value is listed as “positive function”. Taken in the same sequence, the figures for `NC(=O)CC[C@H](N)C(=O)O` [glutamine] were “excellent” and “positive function”. The like results for `NCC(=O)O` [glycine] were, in that order, “excellent” and “positive function”.

Regarding `N[C@@H](Cc1c[nH]cn1)C(=O)O` [histidine], the “growth and development” value is given as “excellent”; the “function” value is “positive function”. Taken in the same sequence, the figures for `N[C@@H](Cc1ccccc1)C(=O)O` [phenylalanine] were “excellent” and “positive function”. For `N[C@@H](CCC(=O)[O-])C(=O)[O-].[Na+].[Na+]` [sodium glutamate], the “growth and development” value is listed as “excellent”; the “function” value was “positive function”. With `N[C@@H](Cc1c[nH]c2ccccc12)C(=O)O` [tryptophan], the “growth and development” value is “excellent”; the “function” value was “positive function”.

As to `CC(C)[C@H](N)C(=O)O` [valine], the “growth and development” value was “excellent”.
